Experiments:
[1] = system: Pseudomonas aeruginosa; test: Antibacterial activity against Carbapenem- sensitive Pseudomonas aeruginosa 17-7 assessed as reduction in bacterial growth; type: functional
[2] = system: Escherichia coli; test: Antibacterial activity against ESBLs positive Carbapenem-sensitive Escherichia coli 17-5 assessed as reduction in bacterial growth; type: functional
[3] = system: Pseudomonas aeruginosa; test: Bactericidal activity against carbapenem-sensitive Pseudomonas aeruginosa 17-29 assessed as reduction in bacterial growth; type: functional
[4] = system: Klebsiella aerogenes; test: Antibacterial activity against Enterobacter aerogenes 17-4 assessed as reduction in bacterial growth; type: functional
[5] = system: Escherichia coli; test: Antibacterial activity against ESBLs negative Carbapenem-sensitive Escherichia coli 17-9 assessed as reduction in bacterial growth; type: functional
[6] = system: Klebsiella pneumoniae; test: Bactericidal activity against ESBLs positive Carbapenem-sensitive Klebsiella pneumoniae 17-2 assessed as reduction in bacterial growth in the presence of avibactam; type: functional
[7] = system: Klebsiella pneumoniae; test: Antibacterial activity against Carbapenem- resistant Klebsiella pneumoniae KR 15-4 assessed as reduction in bacterial growth; type: functional
[8] = system: Escherichia coli; test: Bactericidal activity against ESBLs positive carbapenem-sensitive Escherichia coli 17-18 assessed as reduction in bacterial growth in the presence of avibactam; type: functional
[9] = system: Pseudomonas aeruginosa; test: Antibacterial activity against Carbapenem- resistant Pseudomonas aeruginosa 17-1 assessed as reduction in bacterial growth in the presence of Avibactam; type: functional
[10] = system: Acinetobacter baumannii; test: Antibacterial activity against Carbapenem- resistant Acinetobacter baumannii 17-6 assessed as reduction in bacterial growth; type: functional
[11] = system: Pseudomonas aeruginosa; test: Antibacterial activity against Carbapenem- sensitive Pseudomonas aeruginosa 17-10 assessed as reduction in bacterial growth; type: functional
[12] = system: Klebsiella pneumoniae; test: Antibacterial activity against Carbapenem- resistant Klebsiella pneumoniae KR 15-8 assessed as reduction in bacterial growth; type: functional
[13] = system: Escherichia coli; test: Antibacterial activity against ESBLs positive Carbapenem-sensitive Escherichia coli 17-22 assessed as reduction in bacterial growth; type: functional
[14] = system: Klebsiella aerogenes; test: Antibacterial activity against Enterobacter aerogenes 17-1 assessed as reduction in bacterial growth; type: functional
[15] = system: Klebsiella aerogenes; test: Antibacterial activity against Enterobacter aerogenes 17-3 assessed as reduction in bacterial growth; type: functional
[16] = system: Pseudomonas aeruginosa; test: Antibacterial activity against Carbapenem- sensitive Pseudomonas aeruginosa 17-29 assessed as reduction in bacterial growth; type: functional
[17] = system: Pseudomonas aeruginosa; test: Antibacterial activity against Carbapenem- sensitive Pseudomonas aeruginosa 17-24 assessed as reduction in bacterial growth; type: functional
[18] = system: Acinetobacter baumannii; test: Antibacterial activity against Multidrug resistant Acinetobacter baumannii AR 15-4 assessed as reduction in bacterial growth in the presence of Avibactam; type: functional
[19] = system: Klebsiella pneumoniae; test: Antibacterial activity against Carbapenem- sensitive Klebsiella pneumoniae 17-6 overexpressing extended spectrum beta-lactamases assessed as reduction in bacterial growth; type: functional
[20] = system: Escherichia coli; test: Antibacterial activity against Escherichia coli NCTC 13353 assessed as reduction in bacterial growth; type: functional
[21] = system: Klebsiella pneumoniae; test: Antibacterial activity against Carbapenem- sensitive Klebsiella pneumoniae 17-14 overexpressing extended spectrum beta-lactamases assessed as reduction in bacterial growth; type: functional
[22] = system: Escherichia coli; test: Antibacterial activity against ESBLs positive Carbapenem-sensitive Escherichia coli 17-15 assessed as reduction in bacterial growth; type: functional
[23] = system: Enterobacter cloacae; test: Antibacterial activity against Enterobacter cloacae 17-1 assessed as reduction in bacterial growth; type: functional
[24] = system: Pseudomonas aeruginosa; test: Antibacterial activity against Carbapenem- sensitive Pseudomonas aeruginosa 17-26 assessed as reduction in bacterial growth; type: functional
[25] = system: Enterobacter cloacae; test: Antibacterial activity against Enterobacter cloacae 17-7 assessed as reduction in bacterial growth; type: functional
[26] = system: Escherichia coli; test: Antibacterial activity against ESBLs positive Carbapenem-sensitive Escherichia coli 17-18 assessed as reduction in bacterial growth; type: functional
[27] = system: Klebsiella pneumoniae; test: Antibacterial activity against Carbapenem- sensitive Klebsiella pneumoniae 17-5 overexpressing extended spectrum beta-lactamases assessed as reduction in bacterial growth; type: functional
[28] = system: Escherichia coli; test: Antibacterial activity against ESBLs positive Carbapenem-sensitive Escherichia coli 17-12 assessed as reduction in bacterial growth; type: functional
[29] = system: Klebsiella pneumoniae; test: Antibacterial activity against Carbapenem- resistant Klebsiella pneumoniae KR 15-7 assessed as reduction in bacterial growth; type: functional
[30] = system: Klebsiella aerogenes; test: Antibacterial activity against Enterobacter aerogenes 15-3 assessed as reduction in bacterial growth in the presence of Avibactam; type: functional
[31] = system: Pseudomonas aeruginosa; test: Antibacterial activity against Carbapenem- sensitive Pseudomonas aeruginosa 17-21 assessed as reduction in bacterial growth; type: functional
[32] = system: Acinetobacter baumannii; test: Antibacterial activity against Carbapenem- resistant Acinetobacter baumannii 17-10 assessed as reduction in bacterial growth in the presence of Avibactam; type: functional
[33] = system: Acinetobacter baumannii; test: Antibacterial activity against Carbapenem- resistant Acinetobacter baumannii 17-11 assessed as reduction in bacterial growth; type: functional
[34] = system: Pseudomonas aeruginosa; test: Antibacterial activity against Pseudomonas aeruginosa ATCC 27853 assessed as reduction in bacterial growth; type: functional
[35] = system: Pseudomonas aeruginosa; test: Bactericidal activity against carbapenem-sensitive Pseudomonas aeruginosa 17-26 assessed as reduction in bacterial growth; type: functional
[36] = system: Klebsiella pneumoniae; test: Antibacterial activity against ESBLs negative Carbapenem-sensitive Klebsiella pneumonia 15-2 assessed as reduction in bacterial growth; type: functional
[37] = system: Acinetobacter baumannii; test: Antibacterial activity against Multidrug resistant Acinetobacter baumannii AR 15-2 assessed as reduction in bacterial growth; type: functional
[38] = system: Klebsiella pneumoniae; test: Antibacterial activity against Carbapenem- sensitive Klebsiella pneumoniae 17-15 overexpressing extended spectrum beta-lactamases assessed as reduction in bacterial growth; type: functional
[39] = system: Enterobacter cloacae; test: Antibacterial activity against Enterobacter cloacae 17-3 assessed as reduction in bacterial growth; type: functional
[40] = system: Escherichia coli; test: Antibacterial activity against ESBLs negative Carbapenem-sensitive Escherichia coli 17-1 assessed as reduction in bacterial growth; type: functional
[41] = system: Enterobacter cloacae; test: Antibacterial activity against Enterobacter cloacae 17-2 assessed as reduction in bacterial growth in the presence of Avibactam; type: functional
[42] = system: Escherichia coli; test: Antibacterial activity against ESBLs negative Carbapenem-sensitive Escherichia coli 17-1 assessed as reduction in bacterial growth in the presence of Avibactam; type: functional
[43] = system: Klebsiella pneumoniae; test: Antibacterial activity against Multidrug resistant Klebsiella pneumoniae KR 15-3 assessed as reduction in bacterial growth; type: functional
[44] = system: Acinetobacter baumannii; test: Antibacterial activity against Carbapenem- resistant Acinetobacter baumannii 17-12 assessed as reduction in bacterial growth; type: functional
[45] = system: Enterobacter cloacae; test: Antibacterial activity against Enterobacter cloacae 17-5 assessed as reduction in bacterial growth; type: functional
[46] = system: Klebsiella pneumoniae; test: Antibacterial activity against Klebsiella pneumoniae ATCC BAA-1705 assessed as reduction in bacterial growth; type: functional
[47] = system: Klebsiella pneumoniae; test: Antibacterial activity against Carbapenem- sensitive Klebsiella pneumoniae 17-10 overexpressing extended spectrum beta-lactamases assessed as reduction in bacterial growth; type: functional
[48] = system: Klebsiella pneumoniae; test: Antibacterial activity against ESBLs negative Carbapenem-sensitive Klebsiella pneumoniae 17-17 assessed as reduction in bacterial growth; type: functional
[49] = system: Klebsiella pneumoniae; test: Antibacterial activity against Carbapenem- sensitive Klebsiella pneumoniae 17-9 overexpressing extended spectrum beta-lactamases assessed as reduction in bacterial growth; type: functional
[50] = system: Acinetobacter baumannii; test: Antibacterial activity against Acinetobacter baumannii NCTC 13304 assessed as reduction in bacterial growth in the presence of Avibactam; type: functional
[51] = system: Acinetobacter baumannii; test: Antibacterial activity against Carbapenem- resistant Acinetobacter baumannii 17-5 assessed as reduction in bacterial growth
[52] = system: Escherichia coli; test: Antibacterial activity against ESBLs negative Carbapenem-sensitive Escherichia coli 17-4 assessed as reduction in bacterial growth; type: functional

CC(C)(O/N=C(\C(=O)N[C@@H]1C(=O)N2C(C(=O)[O-])=C(C[n+]3ccccc3)CS[C@H]12)c1csc(N)n1)C(=O)O [CEFTAZIDIME]
0.25 µg/mL: MBC [6]
0.5 µg/mL: MIC [5] | MBC [8] | MIC [15] | MIC [23] | MIC [42]
8 µg/mL: MIC [4] | MIC [9] | MIC [11] | MIC [14] | MIC [18] | MIC [19] | MIC [28] | MBC [35] | MIC [50]
4 µg/mL: MIC [2] | MBC [3] | MIC [30] | MIC [31] | MIC [32]
64 µg/mL: MIC [20] | MIC [22] | MIC [40] | MIC [44] | MIC [45] | MIC [46] | MIC [49]
32 µg/mL: MIC [33] | MIC [38]
1 µg/mL: MIC [16] | MIC [24] | MIC [27] | MIC [34] | MIC [39] | MIC [41]
16 µg/mL: MIC [47]
2 µg/mL: MIC [17] | MIC [21] | MIC [26]
> 64 µg/mL: MIC [7] | MIC [10] | MIC [12] | MIC [13] | MIC [25] | MIC [29] | MIC [37] | MIC [43] | MIC [51]
0.125 µg/mL: MIC [1] | MIC [36] | MIC [48]

C[C@@H](O)[C@H]1C(=O)N2C(C(=O)O)=C(S[C@@H]3CN[C@H](C(=O)N(C)C)C3)[C@H](C)[C@H]12 [MEROPENEM]
> 64 µg/mL: MIC [7] | MIC [12] | MIC [29]
0.06 µg/mL: MIC [1] | MIC [13] | MIC [39] | MIC [45] | MIC [49]
32 µg/mL: MIC [10] | MIC [33] | MIC [46]
2 µg/mL: MIC [17] | MIC [31]
1 µg/mL: MIC [16] | MIC [21] | MIC [24] | MIC [34]
16 µg/mL: MIC [44]
< 0.03 µg/mL: MIC [2] | MIC [5] | MIC [15] | MIC [19] | MIC [20] | MIC [22] | MIC [23] | MIC [26] | MIC [27] | MIC [28] | MIC [52] | MIC [36] | MIC [38] | MIC [40] | MIC [47] | MIC [48]
0.125 µg/mL: MIC [4] | MIC [14]
0.25 µg/mL: MIC [11] | MIC [25]

Source: ChEMBL document CHEMBL4813981, “Synthesis and in vitro antibacterial activity of new aminothiazole-oximepiperidone cephalosporins” (2021)
